Legend:
cyclooxygenase-1 = target: T1, cyclooxygenase-1 (Homo sapiens, UniProt P23219); test: Inhibitive effects against cyclooxygenase-1 using U-937 (PGE2 quantitation); type: cell-based; conditions: U-937 cells, arachidonic acid substrate
T1 construct: A cultured U-937 (humane lymphoma cell with Deposit No. 21593, obtained from Korean cell line bank) was centrifuged to collect the pellet; endogenous in cells; host or cells: U-937 (Korean cell line bank, Deposit No. 21593)
Protocol: Then, the pellet was diluted with 1×HBSS(Hank's balanced salt solution) at the concentration of 1×10^6 cells/ml, and 1 ml of them was transferred into each of 12-well plates.
Arachidonic acid as a substrate was dissolved in ethanol to prepare a stock solution with a concentration of 10 mM, followed by diluting with 1×HBSS to prepare the solution of 1 mM. 10 μl of 1 mM Arachidonic acid solution was added to each of the treated wells and the mixture was cultured at 37° C. in CO2 incubator for 30 minutes. The cell solution of each well was collected in the centrifuge tube and centrifuged at 4° C., for 5 minutes at 10,000 rpm. As PGE2 existed in the supernatant separated from collected cell, the concentration of PGE2 was quantitated by using monoclonal kit from Cayman Chemicals, and the concentration of samples and DMSO vehicle were compared to estimate the inhibition ratio (%) of each compound against cyclooxygenase-1. Ultimately, the inhibition effect against the cyclooxygenase-1 enzyme was obtained from the result.

cyclooxygenase-2 = target: T2, cyclooxygenase-2 (Mus musculus, UniProt Q05769); test: Inhibitive effects against cyclooxygenase-2 using Raw 264.7 (interferon/LPS-induced PGE2, EIA); type: cell-based; conditions: Raw 264.7 cells, interferon + LPS, 18 hours
T2 construct: After seeding 2×10^6 cells of Raw 264.7 cell (obtained from Korean cell line bank, Deposit No. 40071) into each of 12-well plates; endogenous in cells; host or cells: Raw 264.7 (Korean cell line bank, Deposit No. 40071), aspirin-pretreated, induced with interferon and LPS
T2 sequence (Q05769 18-604): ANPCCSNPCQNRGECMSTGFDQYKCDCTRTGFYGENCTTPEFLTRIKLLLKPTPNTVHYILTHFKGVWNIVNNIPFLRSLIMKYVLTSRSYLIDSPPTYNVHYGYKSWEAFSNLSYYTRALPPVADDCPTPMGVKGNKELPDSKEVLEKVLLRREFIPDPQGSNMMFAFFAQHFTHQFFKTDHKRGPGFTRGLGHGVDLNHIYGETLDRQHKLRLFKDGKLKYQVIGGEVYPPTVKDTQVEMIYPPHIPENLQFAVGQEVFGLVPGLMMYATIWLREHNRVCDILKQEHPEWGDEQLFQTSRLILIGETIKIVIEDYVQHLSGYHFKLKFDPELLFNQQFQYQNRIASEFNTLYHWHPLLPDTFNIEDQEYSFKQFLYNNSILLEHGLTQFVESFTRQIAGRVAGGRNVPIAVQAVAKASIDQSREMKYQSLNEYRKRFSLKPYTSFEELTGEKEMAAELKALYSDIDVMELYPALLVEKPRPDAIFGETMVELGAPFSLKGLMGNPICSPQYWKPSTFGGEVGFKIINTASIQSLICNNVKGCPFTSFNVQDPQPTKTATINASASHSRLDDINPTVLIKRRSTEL
Protocol: In addition, the samples were treated with 100 units/ml of interferon ? and 100 ng/ml of lipopolysaccharide(LPS), and cultured for 18 hours. Then, the media was transferred to other test tubes and PGE 2 was quantitated by using EIA kit (Cayman Chemicals).
The % inhibition was calculated as follows, and the results were described in Table 1.
% inhibition={(PGE2 concentration compensated with interferon ? and LPS-PGE2 concentration compensated with analysis sample)/(PGE2 concentration compensated with interferon ? and LPS)}×100

T1 sequence (P23219 24-599): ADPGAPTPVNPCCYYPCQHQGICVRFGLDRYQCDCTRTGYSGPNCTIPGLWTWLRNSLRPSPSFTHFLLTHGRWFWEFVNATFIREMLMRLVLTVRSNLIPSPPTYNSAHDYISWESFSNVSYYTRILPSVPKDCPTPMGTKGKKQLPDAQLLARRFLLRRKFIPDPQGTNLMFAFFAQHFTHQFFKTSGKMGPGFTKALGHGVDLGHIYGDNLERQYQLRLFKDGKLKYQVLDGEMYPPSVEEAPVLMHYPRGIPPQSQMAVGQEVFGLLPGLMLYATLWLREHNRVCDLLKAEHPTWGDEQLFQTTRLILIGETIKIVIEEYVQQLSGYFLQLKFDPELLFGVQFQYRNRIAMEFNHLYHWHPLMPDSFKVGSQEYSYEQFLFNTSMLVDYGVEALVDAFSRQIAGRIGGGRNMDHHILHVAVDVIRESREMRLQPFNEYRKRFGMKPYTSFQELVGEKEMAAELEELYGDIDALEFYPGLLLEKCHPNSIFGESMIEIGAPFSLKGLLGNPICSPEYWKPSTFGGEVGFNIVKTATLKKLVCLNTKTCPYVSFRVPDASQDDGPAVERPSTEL

Row | Inhibitory effects of cyclooxygenase (COX): COX-1 (10 μM) (cyclooxygenase-1) [% inhibition] | Inhibitory effects of cyclooxygenase (COX): COX-2 (30 nM) (cyclooxygenase-2) [% inhibition] | SMILES
1 | 45.7 | 65.6 | Cc1snc(-c2ccc(Br)cc2)c1-c1ccc(S(C)(=O)=O)cc1 [Example 7, 3-(4-bromophenyl)-4-(4-methanesulfonylphenyl)-5-methyl-isothiazole]
2 | 38.8 | 58.5 | Cc1snc(-c2ccc(Br)cc2)c1-c1ccc(S(N)(=O)=O)cc1 [Example 3, 4-[3-(4-bromophenyl)-5-methyl-isothiazole-4-yl]-benzenesulfonamide]
3 | 56.4 | 69.0 | Cc1snc(-c2ccccc2)c1-c1ccc(S(C)(=O)=O)cc1 [Example 6, 4-(4-methanesulfonylphenyl)-5-methyl-3-phenyl-isothiazole]
4 | 35.5 | 60.2 | Cc1snc(-c2ccccc2)c1-c1ccc(S(N)(=O)=O)cc1 [Example 2, 4-(5-methyl-3-phenyl-isothiazole-4-yl)-benzenesulfonamide]
5 | 79.5 | 67.7 | COc1ccc(-c2nsc(C)c2-c2ccc(S(N)(=O)=O)cc2)cc1 [Example 4, 4-[3-(4-methoxyphenyl)-5-methyl-isothiazole-4-yl]-benzenesulfonamide]
6 | 80.1 | 76.4 | COc1ccc(-c2nsc(C)c2-c2ccc(S(C)(=O)=O)cc2)cc1 [Example 8, 3-(4-methoxyphenyl)-4-(4-methanesulfonylphenyl)-5-methyl-isothiazole]
7 | 77.8 | 72.3 | Cc1snc(-c2ccc(F)cc2)c1-c1ccc(S(N)(=O)=O)cc1 [Example 5, 4-[3-(4-fluorophenyl)-5-methyl-isothiazole-4-yl]-benzenesulfonamide]
8 | 67.2 | 65.1 | Cc1snc(-c2ccc(F)cc2)c1-c1ccc(S(C)(=O)=O)cc1 [Example 9, 3-(4-fluorophenyl)-4-(4-methanesulfonyl)-5-methyl-isothiazole]
9 | 29.8 | 63.7 | Cc1snc(-c2ccc(S(C)(=O)=O)cc2)c1-c1ccc(F)cc1 [Example 1, 4-(4-fluorophenyl)-3-(4-methanesulfonyl)-5-methyl-isothiazole]

Source: patent US6967213B2, “Isothiazole derivatives, process for the preparation thereof, and pharmaceutical composition including the same” (CJ Corp., priority 2003, dated 2005)
